In patent US9597407B2, “Targeted antimicrobial moieties” (C3 Jian, Inc., priority 2009, dated 2017):
Entries after “also recorded” stand apart in the source; their conditions may differ. Ends that are not written are not given here.

Key:
bacteria = test: Binding of targeting peptides to microorganisms (Table 3); details: preferably 1x PBS; for Target(s) (microorganism bound by the targeting peptide) / Target(s) (microorganisms bound by the targeting peptide): peptide binding in aqueous buffers that varied depending on peptide solubility
microorganisms = test: Morphology, biofilm and growth disruption by peptides (Table 5); type: cell-based; design: key: A: Peptide aggregates; B: Less hyphal formation; Clumps; Diffuse clumps and small polyps; F: Diffuse growth; H: Thin; I: Growth inhibition; Microcolony formation; Rippled; Small polyps; Thick; W: Halo formation on top, microlonies on bottom
Description: In certain embodiments peptides that induce alterations in phenotype or other biological activities can also be used as antimicrobial effector moieties.

[1] = microorganism bound by the targeting peptide, binding in aqueous buffers chosen by peptide solubility

Substance: PF-C075 (KALVISVFAIVFSIIFVKFFYWRDKK; Peptide with targeting and/or antimicrobial activity)
- Target(s) (microorganism bound by the targeting peptide) (bacteria): A. naeslundii; also recorded: F. nucleatum; also recorded: P. gingivalis; also recorded: S. mutans; also recorded: T. denticola
- Organism, effect (morphology, biofilm and growth disruption) (microorganisms; F. nucleatum): F. nucleatum (T)
- Organism, effect (morphology, biofilm and growth disruption) (microorganisms; P. gingivalis): P. gingivalis (R)
- Organism, effect (morphology, biofilm and growth disruption) (microorganisms; S. mutans): S. mutans (F)

Substance: PF-164 (EEVSRALAGIGLGLGCRIG; Peptide with targeting and/or antimicrobial activity)
- Target(s) (bacteria; [1]): S. epidermidis; also recorded: M. luteus; also recorded: E. coli; also recorded: C. jeikeium
- Organism, effect (microorganisms; C. jeikeium): C. jeikeium (R)

Substance: PF-069 (FDPVPLKKDKSASKHSHKHNH; Peptide with targeting and/or antimicrobial activity)
- Target(s) (bacteria; microorganism the targeting peptide binds, binding in aqueous buffers that varied with peptide solubility): E. faecalis; also recorded: C. jejuni
- Organism, effect (microorganisms; B. subtilis): B. subtilis (D)
- Organism, effect (microorganisms; C. jejuni): C. jejuni (R)

Substance: MQIFYIKTKIFLSFFLFLLIFSQCFYKIEE [PF-442]
- Target(s) (microorganisms bound by the targeting peptide) (bacteria): S. epidermidis; also recorded: E. coli; also recorded: C. albicans; also recorded: S. pneumoniae; also recorded: E. faecalis
- Organism, effect (morphology, biofilm and growth disruption) (microorganisms; MRSA): MRSA (M)
- Organism, effect (morphology, biofilm and growth disruption) (microorganisms; S. pneumoniae): S. pneumoniae (C)

Substance: PF-662 (chain 1 GKQSRAHGPVASRREFRRKSG; chain 2 GKQSRAHGPVASRREFRRKSG; Peptide with targeting and/or antimicrobial activity)
- Target(s) (microorganism bound by the targeting peptide) (bacteria): Mycobacteria spp
- Organism, effect (morphology, biofilm and growth disruption) (microorganisms; S. pneumoniae): S. pneumoniae (A)

Substance: MKRRRCNWCGKLFYLEEKSKEAYCCKECRKKAKKVKK [PF-307]
- Target(s) (bacteria; [1]): S. epidermidis; also recorded: B. subtilis; also recorded: B. fragilis; also recorded: C. difficile
- Organism, effect (microorganisms; B. subtilis): B. subtilis (H)
- Organism, effect (microorganisms; C. albicans): C. albicans (B)
- Organism, effect (microorganisms; S. epidermidis): S. epidermidis (T)

Substance: PF-404 (VLYFQATVV; Peptide with targeting and/or antimicrobial activity)
- Target(s) (microorganisms bound by the targeting peptide) (bacteria): S. epidermidis; also recorded: E. coli; also recorded: P. aeruginosa; also recorded: E. faecalis; also recorded: C. jeikeium; also recorded: C. jejuni
- Organism, effect (microorganisms; MRSA): MRSA (M)
- Organism, effect (microorganisms; S. epidermidis): S. epidermidis (M)

Substance: PF-598 (MKFMLEVRNKAISAYKEITRTQI; Peptide with targeting and/or antimicrobial activity)
- Target(s) (microorganism bound by the targeting peptide) (bacteria): S. epidermidis and M. luteus and P. mirabilis and P. aeruginosa and C. albicans and MRSA and S. pneumoniae and C. jeikeium
- Organism, effect (morphology, biofilm and growth disruption) (microorganisms; C. jejuni): C. jejuni (R)
- Organism, effect (morphology, biofilm and growth disruption) (microorganisms; E. coli): E. coli (C)
- Organism, effect (morphology, biofilm and growth disruption) (microorganisms; E. faecalis): E. faecalis (R)
- Organism, effect (morphology, biofilm and growth disruption) (microorganisms; MRSA): MRSA (D)
- Organism, effect (morphology, biofilm and growth disruption) (microorganisms; S. epidermidis): S. epidermidis (R)
- Organism, effect (morphology, biofilm and growth disruption) (microorganisms; S. pneumoniae): S. pneumoniae (R)

Substance: PF-664 (chain 1 DQLCVEYPARVSTG; chain 2 DQLCVEYPARVSTG; Peptide with targeting and/or antimicrobial activity)
- Target(s) (microorganism bound by the targeting peptide) (bacteria): M. smegmatis
- Organism, effect (morphology, biofilm and growth disruption) (microorganisms; E. faecalis): E. faecalis (R)
- Organism, effect (morphology, biofilm and growth disruption) (microorganisms; MRSA): MRSA (R)
- Organism, effect (morphology, biofilm and growth disruption) (microorganisms; S. epidermidis): S. epidermidis (M)
- Organism, effect (morphology, biofilm and growth disruption) (microorganisms; S. pneumoniae): S. pneumoniae (M)

Substance: PF-680 (chain 1 ADPHPTTGI; chain 2 ADPHPTTGI; Peptide with targeting and/or antimicrobial activity)
- Target(s) (microorganism bound by the targeting peptide) (bacteria): Mycobacteria spp
- Organism, effect (morphology, biofilm and growth disruption) (microorganisms; MRSA): MRSA (R)

Substance: PF-C084 (FFSVIFLFGLNYLICNSPLFNILR; Peptide with targeting and/or antimicrobial activity)
- Target(s) (microorganism bound by the targeting peptide) (bacteria): A. naeslundii; also recorded: F. nucleatum; also recorded: P. gingivalis; also recorded: S. mutans
- Organism, effect (morphology, biofilm and growth disruption) (microorganisms; F. nucleatum): F. nucleatum (T)
- Organism, effect (morphology, biofilm and growth disruption) (microorganisms; P. gingivalis): P. gingivalis (R)
- Organism, effect (morphology, biofilm and growth disruption) (microorganisms; S. mutans): S. mutans (F)

Substance: PF-430 (AVVCGYLAYTATS; Peptide with targeting and/or antimicrobial activity)
- Target(s) (microorganisms bound by the targeting peptide) (bacteria): S. epidermidis; also recorded: M. luteus; also recorded: E. coli; also recorded: S. pneumoniae; also recorded: E. faecalis; also recorded: C. jeikeium; also recorded: C. jejuni
- Organism, effect (morphology, biofilm and growth disruption) (microorganisms; MRSA): MRSA (M)
- Organism, effect (morphology, biofilm and growth disruption) (microorganisms; S. epidermidis): S. epidermidis (M)
- Organism, effect (morphology, biofilm and growth disruption) (microorganisms; S. pneumoniae): S. pneumoniae (M)

Substance: KKFKIFVIINWFYHKYIILNFEENF [PF-C085]
- Target(s) (microorganism bound by the targeting peptide) (bacteria): A. naeslundii; also recorded: F. nucleatum; also recorded: P. gingivalis; also recorded: S. mutans; also recorded: T. denticola
- Organism, effect (morphology, biofilm and growth disruption) (microorganisms; S. mutans): S. mutans (F)

Substance: HKNKLNIPHIKS [PF-477]
- Target(s) (microorganisms bound by the targeting peptide) (bacteria): S. epidermidis; also recorded: M. luteus; also recorded: C. albicans; also recorded: S. pneumoniae; also recorded: C. jeikeium; also recorded: C. jejuni
- Organism, effect (morphology, biofilm and growth disruption) (microorganisms; S. pneumoniae): S. pneumoniae (H)

Substance: PF-171 (TQVTLCRTW; Peptide with targeting and/or antimicrobial activity)
- Target(s) (bacteria; [1]): S. epidermidis; also recorded: E. coli; also recorded: P. aeruginosa; also recorded: S. pneumoniae
- Organism, effect (microorganisms; B. subtilis): B. subtilis (D)
- Organism, effect (microorganisms; C. jejuni): C. jejuni (R)
- Organism, effect (microorganisms; M. luteus): M. luteus (R)
- Organism, effect (microorganisms; MRSA): MRSA (M)
- Organism, effect (microorganisms; S. epidermidis): S. epidermidis (R)
- Organism, effect (microorganisms; S. pneumoniae): S. pneumoniae (D)

Substance: PF-677 (chain 1 TCRGAGMH; chain 2 TCRGAGMH; Peptide with targeting and/or antimicrobial activity)
- Target(s) (microorganism bound by the targeting peptide) (bacteria): Mycobacteria spp
- Organism, effect (morphology, biofilm and growth disruption) (microorganisms; E. faecalis): E. faecalis (R)
- Organism, effect (morphology, biofilm and growth disruption) (microorganisms; MRSA): MRSA (D)
- Organism, effect (morphology, biofilm and growth disruption) (microorganisms; S. epidermidis): S. epidermidis (R)
- Organism, effect (morphology, biofilm and growth disruption) (microorganisms; S. pneumoniae): S. pneumoniae (D)

Substance: CGKLLEQKNFFLKTR [PF-521]
- Target(s) (microorganisms bound by the targeting peptide) (bacteria): S. epidermidis; also recorded: E. coli; also recorded: P. aeruginosa; also recorded: S. pneumoniae; also recorded: E. faecalis
- Organism, effect (morphology, biofilm and growth disruption) (microorganisms; S. pneumoniae): S. pneumoniae (H)

Substance: PF-657 (chain 1 YVANYTITQFGRDFDDRLAVAIHFA; chain 2 YVANYTITQFGRDFDDRLAVAIHFA; Peptide with targeting and/or antimicrobial activity)
- Target(s) (microorganism bound by the targeting peptide) (bacteria): Mycobacteria spp
- Organism, effect (morphology, biofilm and growth disruption) (microorganisms; C. jeikeium): C. jeikeium (D)
- Organism, effect (morphology, biofilm and growth disruption) (microorganisms; E. faecalis): E. faecalis (D)
- Organism, effect (morphology, biofilm and growth disruption) (microorganisms; MRSA): MRSA (D)
- Organism, effect (morphology, biofilm and growth disruption) (microorganisms; S. epidermidis): S. epidermidis (C)
- Organism, effect (morphology, biofilm and growth disruption) (microorganisms; S. pneumoniae): S. pneumoniae (H)

Substance: PF-215 (ELKITNYNVNTVLYRYYKWGNDLCE; Peptide with targeting and/or antimicrobial activity)
- Target(s) (bacteria; [1]): S. epidermidis; also recorded: M. luteus; also recorded: P. aeruginosa; also recorded: A. baumannii
- Organism, effect (microorganisms; M. luteus): M. luteus (T)

Substance: PF-129 (MKLLARDPWVCAWNDIW; Peptide with targeting and/or antimicrobial activity)
- Target(s) (bacteria; [1]): S. epidermidis and MRSA and E. faecalis and C. jeikeium and C. jejuni
- Organism, effect (microorganisms; C. jeikeium): C. jeikeium (R)
- Organism, effect (microorganisms; S. epidermidis): S. epidermidis (M)

Substance: PF-156 (LITAEQPATAPIAGK; Peptide with targeting and/or antimicrobial activity)
- Target(s) (bacteria; [1]): S. epidermidis; also recorded: C. jeikeium
- Organism, effect (microorganisms; MRSA): MRSA (H)

Substance: PF-271 (AAQPQTTSP; Peptide with targeting and/or antimicrobial activity)
- Target(s) (bacteria; [1]): S. epidermidis; also recorded: M. luteus; also recorded: P. aeruginosa; also recorded: A. baumannii
- Organism, effect (microorganisms; M. luteus): M. luteus (T)

Substance: PF-645 (chain 1 SNSVQQG; chain 2 SNSVQQG; Peptide with targeting and/or antimicrobial activity)
- Target(s) (microorganism bound by the targeting peptide) (bacteria): Mycobacteria spp
- Organism, effect (morphology, biofilm and growth disruption) (microorganisms; C. albicans): C. albicans (B)
- Organism, effect (morphology, biofilm and growth disruption) (microorganisms; S. pneumoniae): S. pneumoniae (I)

Substance: NTNDLLQAFELMGLGMAGVFIVLGILYIVAELLIKIFPVNN [PF-C194]
- Target(s) (microorganism bound by the targeting peptide) (bacteria): A. naeslundii; also recorded: F. nucleatum; also recorded: P. gingivalis; also recorded: S. mutans; also recorded: T. denticola
- Organism, effect (morphology, biofilm and growth disruption) (microorganisms; F. nucleatum): F. nucleatum (T)
- Organism, effect (morphology, biofilm and growth disruption) (microorganisms; P. gingivalis): P. gingivalis (T)
- Organism, effect (morphology, biofilm and growth disruption) (microorganisms; S. mutans): S. mutans (F)

Substance: PF-C091 (ASNTPRFVRLTLFNFYSKIWNVTHLFLFNNL; Peptide with targeting and/or antimicrobial activity)
- Target(s) (microorganism bound by the targeting peptide) (bacteria): A. naeslundii; also recorded: F. nucleatum; also recorded: P. gingivalis; also recorded: S. mutans; also recorded: T. denticola
- Organism, effect (morphology, biofilm and growth disruption) (microorganisms; F. nucleatum): F. nucleatum (T)

Substance: VLPFPAIPLSRRRACVAAPRPRSRQRAS [PF-168]
- Target(s) (bacteria; [1]): S. epidermidis and M. luteus and E. coli and C. albicans and MRSA and C. jeikeium and C. jejuni
- Organism, effect (microorganisms; MRSA): MRSA (I)
- Organism, effect (microorganisms; P. aeruginosa): P. aeruginosa (H)

Substance: LSEMERRRLRKRA-NH2 [PF-529]
- Target(s) (microorganisms bound by the targeting peptide) (bacteria): S. epidermidis and E. coli and C. albicans and MRSA and S. pneumoniae and E. faecalis and C. jeikeium
- Organism, effect (morphology, biofilm and growth disruption) (microorganisms; S. pneumoniae): S. pneumoniae (H)
